{"source": "patent US20090227799A1", "about": "(priority 2004, published 2009)"}
{"test_system": "opfGWT1 expressing yeast", "assay": "Measurement of antimalarial agent activity using opfGWT1-expressing yeast (growth inhibition, MIC)", "format": "cell-based", "settings": "Saccharomyces cerevisiae, 48 h, read-out: MIC (μg/m1) opfGWT1 […]; minimum concentration at which turbidity (660 nm) was 0.1 or less; SD culture medium, 96 well plate, 30° C. for 2 days; final highest concentration 25 μg/ml", "description": "Compounds having antimalarial activity were screened, using the opfGWT1 expressing yeast, which expresses the malaria protozoa GWT1 gene. The opfGWT1 expressing yeast was prepared according to the methods described in Example 1 to Example 3 of WO 2004/048567.\nThe test compound was serially diluted twice in SD culture medium (Sabouraud-dextrose culture medium) so that the final highest concentration was 25 μg/ml and dispensed into a 96 well plate so as to obtain 50 μl/well. An overnight culture solution of the opfGWT1 expressing yeast diluted to 1/1000 was added therein in the amount of 50 μl/well addition, the plate was incubated at 30° C. for 2 days, then turbidity at 660 nm was measured.", "units": {"MIC": "µg/mL"}}
{"smiles": "Nc1ncccc1C(=O)NCc1ccc(Cc2cccc(Cl)c2)s1", "MIC": 12.5}
{"smiles": "Nc1ncccc1C(=O)NCc1ccc(Cc2cccc(Cl)c2)o1", "note": "[Reference Example A-4, 2-Amino-N-(5-(3-chloro-benzyl)-furan-2-ylmethyl)-nicotinamide]", "MIC": 6.25}
{"smiles": "Nc1ncccc1C(=O)NCc1ccc(Cc2cccc(F)c2)o1", "note": "[Reference Example A-6, 2-Amino-N-(5-(3-fluoro-benzyl)-furan-2-ylmethyl)-nicotinamide]", "MIC": 25}
{"smiles": "Nc1ccc(C(=O)NCc2ccc(Oc3ccccc3)s2)c(N)n1", "note": "[Reference Example A-54, 2,6-diamino-N-(5-phenoxy-thiophene-2-ylmethyl)-nicotinamide]", "MIC": 25}
{"smiles": "Cc1cccc(Oc2ccc(CNC(=O)c3cccnc3N)s2)c1", "note": "[Reference Example A-64, 2-Amino-N-(5-m-tolyloxy-thiophen-2-ylmethyl)-nicotinamide]", "MIC": 12.5}
{"smiles": "Nc1ncccc1C(=O)NCc1ccc(Oc2ccccc2)s1", "note": "[Reference Example A-67, 2-Amino-N-(5-phenoxy-thiophen-2-ylmethyl)-nicotinamide]", "MIC": 12.5}
{"smiles": "Nc1ncccc1C(=O)NCc1ccc(Oc2cccc(F)c2)s1", "note": "[Reference Example A-68, 2-Amino-N-(5-(3-fluoro-phenoxy)-thiophen-2-ylmethyl)-nicotinamide]", "MIC": 12.5}
{"smiles": "Nc1ncccc1C(=O)NCc1ccc(Oc2ccc(F)cc2)s1", "note": "[Reference Example A-69, 2-Amino-N-(5-(4-fluoro-phenoxy)-thiophen-2-ylmethyl)-nicotinamide]", "MIC": 25}
{"smiles": "Nc1ncccc1C(=O)NCc1cc(Oc2ccccc2)cs1", "note": "[Reference Example A-72, 2-Amino-N-(4-phenoxy-thiophen-2-ylmethyl)-nicotinamide]", "MIC": 12.5}
{"smiles": "Nc1ncccc1C(=O)NCc1ccc(Oc2cccc(Cl)c2)s1", "note": "[Reference Example A-73, 2-Amino-N-(5-(3-chloro-phenoxy)-thiophen-2-ylmethyl)-nicotinamide]", "MIC": 6.25}
{"smiles": "CC(=O)c1ccc(C(=O)NCc2ccc(Oc3ccccc3)s2)c(N)n1", "note": "[Reference Example A-98, 6-Acetyl-2-amino-N-(5-phenoxy-thiophen-2-ylmethyl)-nicotinamide]", "MIC": 12.5}
{"smiles": "CCOCCNc1ccc(C(=O)NCc2ccc(Oc3ccccc3)s2)c(N)n1", "note": "[Reference Example A-105, 2-Amino-6-(2-ethoxy-ethylamino)-N-(5-phenoxy-thiophen-2-ylmethyl)-nicotinamide]", "MIC": 25}
{"smiles": "COCc1ccc(C(=O)NCc2ccc(Oc3cccc(F)c3)s2)c(N)n1", "note": "[Reference Example A-123, 2-Amino-N-(5-(3-fluoro-phenoxy)-thiophen-2-ylmethyl)-6-methoxymethyl-nicotinamide]", "MIC": 25}
{"smiles": "C=Cc1ccc(C(=O)NCc2ccc(Oc3ccccc3)s2)c(N)n1", "note": "[Reference Example A-168, 2-Amino-N-(5-phenoxy-thiophen-2-ylmethyl)-6-vinyl-nicotinamide]", "MIC": 12.5}
{"smiles": "Nc1ccc(C(=O)NCc2ccc(OCc3cccc(Cl)c3)cc2)c(N)n1", "note": "[Reference Example A-173, 2,6-Diamino-N-(4-(3-chloro-benzyloxy)-benzyl)-nicotinamide]", "MIC": 12.5}
{"smiles": "Nc1nc(CCF)ccc1C(=O)NCc1ccc(Oc2ccccc2)s1", "note": "[Reference Example A-177, 2-Amino-6-(2-fluoro-ethyl)-N-(5-phenoxy-thiophen-2-ylmethyl)-nicotinamide]", "MIC": 25}
{"smiles": "CCCCOCc1ccc(CNC(=O)c2ccc(COC)nc2N)cc1", "note": "[Reference Example A-182]", "MIC": 6.25}
{"smiles": "CCCCOc1ccc(CNC(=O)c2ccc(COC)nc2N)cc1", "note": "[Reference Example A-188, 2-Amino-N-(4-butoxy-benzyl)-6-methoxymethyl-nicotinamide]", "MIC": 6.25}
{"smiles": "O=C(NCc1ccc(Oc2cccc(F)c2)s1)c1ccc2ncccc2c1", "note": "[Reference Example E-65, Quinoline-6-carboxylic acid (5-(3-fluorophenoxy)thiophen-2-ylmethyl)amide]", "MIC": 25}
